This passage reports IC50 results from patent publication US8754079B2, “Cycloalkyl containing thienopyrimidines for pharmaceutical compositions” (Boehringer Ingelheim International GmbH, priority 2010, dated 2014).

Broadly, the IC50 is the concentration that gives 50% inhibition.

This experiment concerns the target T1, MNK2 (Homo sapiens, UniProt Q9HBH9).
T1 construct: the open reading frames of human Mnk1 and Mnk2a were amplified from cDNA; made in house; host or cells: E. coli BL21
The experiment in a line: Mnk2a in vitro kinase assay (indirect fluorescence polarization). The class given is biochemical. The following applies: pre-activated GST-Mnk2a 2.5 nM, 20 μM ATP, 30 μM substrate peptide. The gist of the method: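 Human GST-Mnk2a was expressed in E. coli and activated in vitro with 150 nM pre-activated ERK2 and 50 μM ATP in HEPES pH 7.4/MgCl2 buffer (45 min, 30 °C). Activity on an eIF4E Ser209-derived 12mer peptide was read by competitive fluorescence polarization with a phospho-specific antibody.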
(In general: Polarisation of emitted light reports the rotation of a fluorescent probe.)

T1 sequence (Q9HBH9 whole entry): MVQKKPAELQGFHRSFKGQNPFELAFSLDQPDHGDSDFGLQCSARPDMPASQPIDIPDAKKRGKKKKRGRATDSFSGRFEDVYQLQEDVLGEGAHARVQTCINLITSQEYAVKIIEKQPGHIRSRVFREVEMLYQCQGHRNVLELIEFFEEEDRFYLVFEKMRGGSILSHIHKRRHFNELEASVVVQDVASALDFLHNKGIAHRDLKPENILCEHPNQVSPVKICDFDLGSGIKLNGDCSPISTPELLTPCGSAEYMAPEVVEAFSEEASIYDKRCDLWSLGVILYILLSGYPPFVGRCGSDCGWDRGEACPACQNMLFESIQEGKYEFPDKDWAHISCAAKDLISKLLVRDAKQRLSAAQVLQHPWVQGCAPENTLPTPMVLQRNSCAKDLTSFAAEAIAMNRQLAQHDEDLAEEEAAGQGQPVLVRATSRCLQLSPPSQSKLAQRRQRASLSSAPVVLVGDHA

The compound `CO[C@H]1CC[C@H](Oc2cc(F)ccc2Nc2ncnc3sc(C(=O)NCC4CCCNC4)c(C)c23)CC1` (stereo partly drawn) [Example 200, 4-[4-Fluoro-2-(trans-4-methoxy-cyclohexyloxy)-phenylamino]-5-methyl-thieno[2,3-d]pyrimidine-6-carboxylic acid (piperidin-3-ylmethyl)-amide] gave a half-inhibitory concentration (IC50) of 0.017 µM. The compound `CO[C@H]1CC[C@H](Oc2cc(F)ccc2Nc2ncnc3sc(C(=O)NCCCN4CCC(O)C4)c(C)c23)CC1` (stereo partly drawn) [Example 201, 4-[4-Fluoro-2-(trans-4-methoxy-cyclohexyloxy)-phenylamino]-5-methyl-thieno[2,3-d]pyrimidine-6-carboxylic acid [3-(3-hydroxy-pyrrolidin-1-yl)-propyl]-amide] registered a half-inhibitory concentration (IC50) of 0.016 µM. In turn, `CO[C@H]1CC[C@@H](Oc2cc(F)ccc2Nc2ncnc3sc(C(=O)NCCCN(C)C)c(C)c23)CC1` [Example 202, 4-[4-Fluoro-2-(cis-4-methoxy-cyclohexyloxy)-phenylamino]-5-methyl-thieno[2,3-d]pyrimidine-6-carboxylic acid (3-dimethylamino-propyl)-amide] had an IC50 of 0.046 µM. For `COCCNC(=O)c1sc2ncnc(Nc3ccc(F)cc3O[C@H]3CC[C@@H](OC)CC3)c2c1C` [Example 203], the IC50 worked out at 0.062 µM. The value for `Cc1c(C(N)=O)sc2ncnc(Nc3cccnc3O[C@H]3CC[C@H](O)CC3)c12` [Example 204, 4-[2-(trans-4-Hydroxy-cyclohexyloxy)-pyridin-3-ylamino]-5-methyl-thieno[2,3-d]pyrimidine-6-carboxylic acid amide] was 0.005 µM; that for `Cc1c(C(N)=O)sc2ncnc(Nc3cccnc3O[C@H]3CC[C@@H](O)CC3)c12` [Example 205, 4-[2-(cis-4-Hydroxy-cyclohexyloxy)-pyridin-3-ylamino]-5-methyl-thieno[2,3-d]pyrimidine-6-carboxylic acid amide] was 0.01 µM; that for `Cc1c(C(=O)NCCCN(C)C)sc2ncnc(Nc3cccnc3O[C@H]3CC[C@H](O)CC3)c12` [Example 206, 4-[2-(trans-4-Hydroxy-cyclohexyloxy)-pyridin-3-ylamino]-5-methyl-thieno[2,3-d]pyrimidine-6-carboxylic acid (3-dimethylamino-propyl)-amide] was 0.013 µM. Take `CO[C@H]1CC[C@H](Oc2ncccc2Nc2ncnc3sc(C(N)=O)c(C)c23)CC1` [Example 207, 4-[2-(trans-4-Methoxy-cyclohexyloxy)-pyridin-3-ylamino]-5-methyl-thieno[2,3-d]pyrimidine-6-carboxylic acid amide]: half-maximal inhibition (IC50) required 0.009 µM. For the compound `CNC(=O)c1sc2ncnc(Nc3cccnc3O[C@H]3CC[C@H](OC)CC3)c2c1C` [Example 208], inhibition was half-maximal at 0.014 µM (IC50). `Cc1c(C(N)=O)sc2ncnc(Nc3ccc(F)cc3O[C@@H]3C[C@@H](O)[C@@H](O)C3)c12` [Example 212] displayed an IC50 of 0.008 µM. As to `Cc1c(C(N)=O)sc2ncnc(Nc3ccc(F)cc3O[C@H]3C[C@@H]4OC(C)(C)O[C@@H]4C3)c12` [Example 213], the IC50 is 0.074 µM. With `Cc1c(C(N)=O)sc2ncnc(Nc3ccc(F)cc3O[C@H]3C[C@@H]4OCO[C@@H]4C3)c12` [Example 214], the IC50 was found to be 0.009 µM. On to `CO[C@H]1C[C@@H](Oc2cc(F)ccc2Nc2ncnc3sc(C(N)=O)c(C)c23)C[C@H]1OC` [Example 216], for which the IC50 turned out to be 0.053 µM. The value for `Cc1c(C(N)=O)sc2ncnc(Nc3ccc(F)cc3O[C@@H]3C[C@@H]4OCO[C@@H]4C3)c12` [Example 218] was 0.038 µM; that for `Cc1c(C(N)=O)sc2ncnc(Nc3ccc(F)cc3O[C@@H]3C[C@@H]4OC(C)(C)O[C@@H]4C3)c12` [Example 220] was 0.39 µM. Compound `Cc1c(C(N)=O)sc2ncnc(Nc3ccc(F)cc3OC3CCC(O)C3)c12` (stereo not shown) [Example 225, 4-(4-fluoro-2-(3-hydroxycyclopentyloxy)phenylamino)-5-methylthieno[2,3-d]pyrimidine-6-carboxamide] displayed an IC50 of 0.006 µM.
